Assay results from patent US20110014164A1, “EFFICIENT INDUCTION OF PLURIPOTENT STEM CELLS USING SMALL MOLECULE COMPOUNDS” (PRESIDENT AND FELLOWS OF HARVARD COLLEGE, priority 2008, published 2011).

Tests used:
iPS-m cell lines = experiment: Karyotype (chromosome) analysis of iPS-m cell lines induced by VPA treatment; type: cell-based, mouse
Description: Supplementary FIG. 4. Chromosome analysis of iPS-m cells. […] Shown here is a representative chromosome analysis image from iPS-m84.
Therefore, VPA partially reprograms MEFs towards more ES cell-like.

[1] = tested on: primary human fibroblasts, BJ and NHDF, infected by Oct4, Sox2 and Klf4; experiment: iPS colony induction in 3-factor (Oct4, Sox2, Klf4) infected human fibroblasts; type: cell-based
Description: AP^+ colonies were compared for 3-factor (Oct4, Sox2 and Klf4) infected BJ fibroblasts with or without VPA treatment at 25 days post-infection.
In the published reprogramming protocol, infected human fibroblasts are typically cultured in fibroblast media first, then reseeded on feeders and switched to hES cell media about a week post-infection. In the modified protocol, human fibroblasts were replated immediately after infection, treated with VPA in hES media, and subsequently cultured in hES media.
The efficiency of iPS colony induction by 3 factors (Oct4, Sox2 and Klf4) and 2 factors (Oct4 and Sox2) with VPA treatment are plotted. Each dot represents one experiment; each bar represents the average for each condition.
Human fibroblasts were first infected by Moloney murine leukemia retroviruses expressing the Oct4, Sox2 and Klf4 genes, and treated with VPA for 1 to 2 weeks.
Human fibroblasts were infected by different transcription factor combinations, and replated in fibroblast medium typically at 2×10^5 cells per well in gelatin-coated 6-well plates at 0 day post-infection. Cells were cultured in hES cell media starting from 1 day post-infection.

[2] = tested on: MEFs infected with the four factors (Oct4, Sox2, Klf4 and c-Myc); type: cell-based, mouse; conditions: 2 mM; 4-factor infected MEFs
Description: FIG. 1(a) MEFs infected with the four factors (Oct4, Sox2, Klf4 and c-Myc) were treated with various chemicals for a week, the percentage of Oct4-GFP positive cells induced was measured through FACS analysis, and compared to infected MEFs without treatment or treated with DMSO (the solvent for Dexamethasone, SAHA and TSA). The chemicals used were: 5′-azaC (2 μM), dexamethasone (dex, 1 μM), 5′-azaC (2 μM) together with dexamethasone (1 μM), VPA (2 mM), SAHA (5 μM) and TSA (20 nM). n=4 for each treatment. For all figures in this study, standard deviations are indicated by error bars, and P values by two-tailed student t-test less than 0.05, 0.01 and 0.001 are indicated by one, two and three asterisks respectively.
To quantitate reprogramming efficiency, we established an assay based on Fluorescence-Activated Cell Sorting (FACS) analysis using an Oct4-GFP transgenic reporter, where the expression of the green fluorescent protein (GFP) is controlled by the promoter and enhancers of Oct4, a pluripotent marker gene^14.
MEFs were derived from e13.5 embryos hemizygous for the Oct4-GFP transgenic allele. Embryos were sexed by inspecting gonads for the pattern of Oct4-GFP expression. Gonads and internal organs were removed before processing the embryos for MEF isolation. To generate iPS cells that can be identified in mouse chimeras after blastocyst injection, we derived MEFs from e13.5 embryos that are hemizygous for Oct4-GFP and heterozygous for the Rosa26-lacZ reporter allele. MEFs were grown in DMEM supplemented with 10% FBS, L-glutamine, penicillin/streptoMycin, nonessential amino acids, and sodium pyruvate. MEFs in early passages (up to passage 5) were used for generation of iPS cells.
Moloney-based retroviral vector (pMXs) containing the murine complementary DNAs of Oct4, Sox2, c-Myc, and Klf4 were obtained from Addgene^1. These plasmids were co-transfected into 293T cells with packaging vectors (pUMVC and pCMV-VSVG), and viral supernatants were collected 48 hours post-transfection to infect MEFs. Two to three rounds of infection were performed during a 48 hour period. The first day after viral supernatants were removed was defined as 0 day post-infection. Infected MEFs were subsequently cultured in mouse ES cell media (Knockout DMEM supplemented with 15% Hyclone FBS, L-glutamine, penicillin/streptoMycin, nonessential amino acids, β-mercaptoethanol, and with 1000 U/ml LIF), and treated with small molecules or growth factors for a week starting from 1 or 2 days post-infection. […] All conditions were tested in quadruplicates.

[3] = tested on: MEFs infected with Oct4, Sox2 and Klf4; experiment: GFP positive iPS colony number in 3-factor infected MEFs; type: cell-based, mouse
Description: FIG. 2(c) Representative pictures at 16 days post-infection showing a significant increase of GFP positive iPS colonies in 3-factor infected MEFs with VPA treatment compared to non-treated control.
(§1) Retroviral introduction of c-Myc could cause tumorigenecity in cells derived from the iPS cells thus generated^2. […] Similar low efficiency was also reported for induction of iPS cells from mouse fibroblasts without c-Myc^24. We tested whether treating the cells with 5′-azaC or VPA improves the efficiency of iPS colony formation without the need for c-Myc. MEFs were first infected with Oct4, Sox2 and Klf4, then treated with 5′-azaC or VPA for a week starting 1 day post-infection. […] Consistent with the FACS data, a 30-40 fold increase of GFP positive colonies was observed compared to control MEFs without treatment (FIG. 2c). This allowed for picking of iPS colonies within two weeks post-infection, sooner than the typical ˜30 days post-infection or later without chemical treatment^13, 24.
For the generation of mouse iPS cells, infected MEFs were cultured in mouse ES cell media until iPS colonies were ready to be picked. In some experiments, knockout serum replacement was used instead of the Hyclone FBS in the mouse ES cell media, which appeared to accelerate the reprogramming process, consistent with a recent report^26. […]

[4] = tested on: MEFs infected with Oct4, Sox2, Klf4 (but no c-Myc); experiment: Reprogramming efficiency of 3-factor infected Oct4-GFP MEFs, FACS analysis; type: cell-based, mouse; conditions: 2 mM for a week; FACS 10 days post-infection; 3-factor infected MEFs
Description: FIG. 2(a) MEFs infected with Oct4, Sox2, Klf4 (but no c-Myc) were treated with 5′-azaC (2 μM) or VPA (2 mM) for a week, the percentage of Oct4-GFP positive cells induced was measured through FACS analysis at 10 days post-infection, and compared to infected MEFs without treatment. n=4 for each condition.
as §1
Moloney-based retroviral vector (pMXs) containing the murine complementary DNAs of Oct4, Sox2, c-Myc, and Klf4 were obtained from Addgene^1. […]

With `CCCC(CCC)C(=O)O` [VPA, valproic acid] the “iPS-m cell lines with normal karyotypes” value (iPS-m cell lines; iPS-m81, 82, 83 and 84 induced by VPA treatment) was “Three out of four”, the “genetic changes at the level of chromosomal abnormalities” value (iPS-m cell lines; iPS-m cell lines induced with VPA (Table 1)) was “Nor does VPA treatment cause detectable genetic changes” and the “promotion of the efficiency of iPS colony formation” value ([1]; human skin cells infected with the three factors) was ~30 fold. For the same compound, the “improvement over the first report on reprogramming by the same 3-factor combination (<0.001%)” value ([1]; optimized induction protocol together with VPA treatment) was 1000 fold, the “improvement over the non-treated control” value [2] was “more than 100 fold” and the “increase of GFP positive colonies compared to control MEFs without treatment” value [3] was 30-40 fold. The “improvement of reprogramming efficiency” value [4] was 50 fold.
